These results are taken from ChEMBL document CHEMBL1158687, “A dihydroflavonol glucoside from Commiphora africana that mediates DNA strand scission” (J Nat Prod, 2005).

Test [1] relates to Escherichia coli. The experiment in a line: Induction of strand scission in pBR322 DNA assessed as conversion from supercoiled form to nicked circular form at 50 uM in presence of copper.
The test system of test [2] is Escherichia coli. The experiment in a line: Induction of strand scission in pBR322 DNA assessed as formation of linear duplex and nicked form at 100 uM in presence of copper.
For test [3], the system named is Escherichia coli. The experiment in a line: Induction of strand scission in pBR322 DNA in presence of copper.
Test [4] has as its system Escherichia coli. In words: Induction of strand scission in pBR322 DNA in presence of ferrous ion.

The structures appear in SMILES notation. Active and inactive are the calls of the source. The calls are words filed in the database; no cut-off is given here.

As to `CC(C)=CCc1c(O[C@@H]2O[C@H](CO)[C@@H](O)[C@H](O)[C@H]2O)cc(O)c2c1O[C@H](c1ccc(O)cc1)[C@@H](O)C2=O`, the results for the Activity in test [1] and in test [3] were 62% and “Dose-dependent effect”, respectively. In addition, the outcome in test [2] was Active. The result in test [4] was inactive.
